According to PubChem BioAssay (NCI):
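Dose response: 5 concentrations. Exposure: 48 h. Format: 96-well plates. Endpoint: linear interpolation; highest concentration if not reached. Definition used: TGI = concentration required for complete inhibition of growth.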

System: 786-0 renal
Assay: NCI-60 cell line screen, 48 h

| SMILES | TGI |
| --- | --- |
| COc1c(C(C)C)cc2c3c1OC(=O)[C@@]31CCCC(C)(C)C1CC2 (stereo partly specified) | > 100 µM |
| OCc1ccc(C2CC(c3ccco3)=NN2c2ccccc2)o1 (stereo unspecified) | > 100 µM |
| COc1cccc(/C=N/n2c(C)n[nH]c2=O)c1 | > 100 µM |
| CC1CCCC(CC(=O)O)(CC(=O)O)C1 (stereo unspecified) | > 100 µM |
| COc1cc2c3c(c1OC)C1(C=CC(=O)C=C1)C[C@H]3N(C)CC2 | > 100 µM |
| Cc1ccc(O)c(-c2cscn2)c1 | > 100 µM |
| O=C(CN(c1ccccc1)c1ccccc1)n1nnc2ccccc21 | > 100 µM |
| CSc1sc2ccccc2[s+]1 | > 100 µM |
| Cc1ccc(S(=O)(=O)C(C#N)c2nc3ccccc3nc2-n2ccnc2)cc1 (stereo unspecified) | > 100 µM |
| COC(=O)C1CCCN1C(=O)C(Cc1cn(S(=O)(=O)c2ccc(C)cc2)cn1)NC(=O)OC(C)(C)C (stereo unspecified) | > 100 µM |
| CC(=O)O[C@]12CCCCCC1C1(O)C(O)CCCC[C@H]12 (stereo partly specified) | > 100 µM |

System: A498 renal
Assay: NCI-60 cell line screen, 48 h

| SMILES | TGI |
| --- | --- |
| COc1ccc(C2COc3cc(O)c(O)cc3C2)cc1 (stereo unspecified) | 17.4 µM |
| COc1cccc(/C=N/n2c(C)n[nH]c2=O)c1 | > 100 µM |
| CC1CCCC(CC(=O)O)(CC(=O)O)C1 (stereo unspecified) | > 100 µM |
| Cc1ccc(O)c(-c2cscn2)c1 | 70 µM |
| CSc1sc2ccccc2[s+]1 | > 100 µM |
| COC(=O)C1CCCN1C(=O)C(Cc1cn(S(=O)(=O)c2ccc(C)cc2)cn1)NC(=O)OC(C)(C)C (stereo unspecified) | > 100 µM |

System: CAKI-1 renal
Assay: NCI-60 cell line screen, 48 h

| SMILES | TGI |
| --- | --- |
| COc1c(C(C)C)cc2c3c1OC(=O)[C@@]31CCCC(C)(C)C1CC2 (stereo partly specified) | > 100 µM |
| COc1ccc(C2COc3cc(O)c(O)cc3C2)cc1 (stereo unspecified) | 52.9 µM |
| COc1cccc(/C=N/n2c(C)n[nH]c2=O)c1 | > 100 µM |
| CC1CCCC(CC(=O)O)(CC(=O)O)C1 (stereo unspecified) | > 100 µM |
| Cc1ccc(O)c(-c2cscn2)c1 | > 100 µM |
| O=C(CN(c1ccccc1)c1ccccc1)n1nnc2ccccc21 | > 100 µM |
| CSc1sc2ccccc2[s+]1 | > 100 µM |
| O=c1c(C(c2ccc(Cl)cc2)c2c(O)c3ccccc3n(-c3ccccc3)c2=O)c(O)c2ccccc2n1-c1ccccc1 | > 100 µM |

System: HL-60(TB) leukemia
Assay: NCI-60 cell line screen, 48 h

| SMILES | TGI |
| --- | --- |
| COc1c(C(C)C)cc2c3c1OC(=O)[C@@]31CCCC(C)(C)C1CC2 (stereo partly specified) | 37.4 µM |
| OCc1ccc(C2CC(c3ccco3)=NN2c2ccccc2)o1 (stereo unspecified) | > 100 µM |
| COc1ccc(C2COc3cc(O)c(O)cc3C2)cc1 (stereo unspecified) | 5.41 µM |
| CC1CCCC(CC(=O)O)(CC(=O)O)C1 (stereo unspecified) | > 100 µM |
| Cc1ccc(O)c(-c2cscn2)c1 | 22.2 µM |
| O=C(CN(c1ccccc1)c1ccccc1)n1nnc2ccccc21 | > 100 µM |
| CSc1sc2ccccc2[s+]1 | > 100 µM |
| Cc1ccc(S(=O)(=O)C(C#N)c2nc3ccccc3nc2-n2ccnc2)cc1 (stereo unspecified) | > 100 µM |
| COC(=O)C1CCCN1C(=O)C(Cc1cn(S(=O)(=O)c2ccc(C)cc2)cn1)NC(=O)OC(C)(C)C (stereo unspecified) | > 100 µM |
| CC(=O)O[C@]12CCCCCC1C1(O)C(O)CCCC[C@H]12 (stereo partly specified) | > 100 µM |

System: HOP-92 NSCLC
Assay: NCI-60 cell line screen, 48 h

| SMILES | TGI |
| --- | --- |
| COc1ccc(C2COc3cc(O)c(O)cc3C2)cc1 (stereo unspecified) | 24 µM |
| CC1CCCC(CC(=O)O)(CC(=O)O)C1 (stereo unspecified) | > 100 µM |
| COc1cc2c3c(c1OC)C1(C=CC(=O)C=C1)C[C@H]3N(C)CC2 | > 100 µM |
| Cc1ccc(O)c(-c2cscn2)c1 | > 100 µM |
| CSc1sc2ccccc2[s+]1 | > 100 µM |
| Cc1ccc(S(=O)(=O)C(C#N)c2nc3ccccc3nc2-n2ccnc2)cc1 (stereo unspecified) | > 100 µM |
| COC(=O)C1CCCN1C(=O)C(Cc1cn(S(=O)(=O)c2ccc(C)cc2)cn1)NC(=O)OC(C)(C)C (stereo unspecified) | > 100 µM |
| O=c1c(C(c2ccc(Cl)cc2)c2c(O)c3ccccc3n(-c3ccccc3)c2=O)c(O)c2ccccc2n1-c1ccccc1 | > 100 µM |

System: K-562 leukemia
Assay: NCI-60 cell line screen, 48 h

| SMILES | TGI |
| --- | --- |
| COc1c(C(C)C)cc2c3c1OC(=O)[C@@]31CCCC(C)(C)C1CC2 (stereo partly specified) | > 100 µM |
| OCc1ccc(C2CC(c3ccco3)=NN2c2ccccc2)o1 (stereo unspecified) | > 100 µM |
| COc1ccc(C2COc3cc(O)c(O)cc3C2)cc1 (stereo unspecified) | 34.2 µM |
| COc1cccc(/C=N/n2c(C)n[nH]c2=O)c1 | > 100 µM |
| CC1CCCC(CC(=O)O)(CC(=O)O)C1 (stereo unspecified) | > 100 µM |
| Cc1ccc(O)c(-c2cscn2)c1 | > 100 µM |
| O=C(CN(c1ccccc1)c1ccccc1)n1nnc2ccccc21 | > 100 µM |
| CSc1sc2ccccc2[s+]1 | > 100 µM |
| Cc1ccc(S(=O)(=O)C(C#N)c2nc3ccccc3nc2-n2ccnc2)cc1 (stereo unspecified) | > 100 µM |
| COC(=O)C1CCCN1C(=O)C(Cc1cn(S(=O)(=O)c2ccc(C)cc2)cn1)NC(=O)OC(C)(C)C (stereo unspecified) | > 100 µM |
| CC(=O)O[C@]12CCCCCC1C1(O)C(O)CCCC[C@H]12 (stereo partly specified) | > 100 µM |
| O=c1c(C(c2ccc(Cl)cc2)c2c(O)c3ccccc3n(-c3ccccc3)c2=O)c(O)c2ccccc2n1-c1ccccc1 | > 100 µM |

System: LOX IMVI melanoma
Assay: NCI-60 cell line screen, 48 h

| SMILES | TGI |
| --- | --- |
| COc1c(C(C)C)cc2c3c1OC(=O)[C@@]31CCCC(C)(C)C1CC2 (stereo partly specified) | > 100 µM |
| OCc1ccc(C2CC(c3ccco3)=NN2c2ccccc2)o1 (stereo unspecified) | > 100 µM |
| COc1ccc(C2COc3cc(O)c(O)cc3C2)cc1 (stereo unspecified) | 500 µM |
| CC1CCCC(CC(=O)O)(CC(=O)O)C1 (stereo unspecified) | > 100 µM |
| COc1cc2c3c(c1OC)C1(C=CC(=O)C=C1)C[C@H]3N(C)CC2 | > 100 µM |
| Cc1ccc(O)c(-c2cscn2)c1 | > 100 µM |
| O=C(CN(c1ccccc1)c1ccccc1)n1nnc2ccccc21 | 70.3 µM |
| CSc1sc2ccccc2[s+]1 | > 100 µM |
| CC(=O)O[C@]12CCCCCC1C1(O)C(O)CCCC[C@H]12 (stereo partly specified) | > 100 µM |
| O=c1c(C(c2ccc(Cl)cc2)c2c(O)c3ccccc3n(-c3ccccc3)c2=O)c(O)c2ccccc2n1-c1ccccc1 | > 100 µM |

System: OVCAR-3 ovarian
Assay: NCI-60 cell line screen, 48 h

| SMILES | TGI |
| --- | --- |
| COc1c(C(C)C)cc2c3c1OC(=O)[C@@]31CCCC(C)(C)C1CC2 (stereo partly specified) | 83.3 µM |
| OCc1ccc(C2CC(c3ccco3)=NN2c2ccccc2)o1 (stereo unspecified) | > 100 µM |
| COc1ccc(C2COc3cc(O)c(O)cc3C2)cc1 (stereo unspecified) | 28.1 µM |
| COc1cccc(/C=N/n2c(C)n[nH]c2=O)c1 | > 100 µM |
| COc1cc2c3c(c1OC)C1(C=CC(=O)C=C1)C[C@H]3N(C)CC2 | > 100 µM |
| Cc1ccc(O)c(-c2cscn2)c1 | > 100 µM |
| O=C(CN(c1ccccc1)c1ccccc1)n1nnc2ccccc21 | > 100 µM |
| Cc1ccc(S(=O)(=O)C(C#N)c2nc3ccccc3nc2-n2ccnc2)cc1 (stereo unspecified) | > 100 µM |
| O=c1c(C(c2ccc(Cl)cc2)c2c(O)c3ccccc3n(-c3ccccc3)c2=O)c(O)c2ccccc2n1-c1ccccc1 | > 100 µM |

System: OVCAR-5 ovarian
Assay: NCI-60 cell line screen, 48 h

| SMILES | TGI |
| --- | --- |
| COc1c(C(C)C)cc2c3c1OC(=O)[C@@]31CCCC(C)(C)C1CC2 (stereo partly specified) | > 100 µM |
| OCc1ccc(C2CC(c3ccco3)=NN2c2ccccc2)o1 (stereo unspecified) | > 100 µM |
| COc1ccc(C2COc3cc(O)c(O)cc3C2)cc1 (stereo unspecified) | 264 µM |
| COc1cccc(/C=N/n2c(C)n[nH]c2=O)c1 | > 100 µM |
| CC1CCCC(CC(=O)O)(CC(=O)O)C1 (stereo unspecified) | > 100 µM |
| COc1cc2c3c(c1OC)C1(C=CC(=O)C=C1)C[C@H]3N(C)CC2 | > 100 µM |
| Cc1ccc(O)c(-c2cscn2)c1 | > 100 µM |
| O=C(CN(c1ccccc1)c1ccccc1)n1nnc2ccccc21 | > 100 µM |
| CSc1sc2ccccc2[s+]1 | > 100 µM |
| Cc1ccc(S(=O)(=O)C(C#N)c2nc3ccccc3nc2-n2ccnc2)cc1 (stereo unspecified) | > 100 µM |
| COC(=O)C1CCCN1C(=O)C(Cc1cn(S(=O)(=O)c2ccc(C)cc2)cn1)NC(=O)OC(C)(C)C (stereo unspecified) | > 100 µM |
| O=c1c(C(c2ccc(Cl)cc2)c2c(O)c3ccccc3n(-c3ccccc3)c2=O)c(O)c2ccccc2n1-c1ccccc1 | > 100 µM |

System: OVCAR-8 ovarian
Assay: NCI-60 cell line screen, 48 h

| SMILES | TGI |
| --- | --- |
| COc1c(C(C)C)cc2c3c1OC(=O)[C@@]31CCCC(C)(C)C1CC2 (stereo partly specified) | 62 µM |
| OCc1ccc(C2CC(c3ccco3)=NN2c2ccccc2)o1 (stereo unspecified) | > 100 µM |
| COc1ccc(C2COc3cc(O)c(O)cc3C2)cc1 (stereo unspecified) | 63.3 µM |
| COc1cccc(/C=N/n2c(C)n[nH]c2=O)c1 | > 100 µM |
| CC1CCCC(CC(=O)O)(CC(=O)O)C1 (stereo unspecified) | > 100 µM |
| COc1cc2c3c(c1OC)C1(C=CC(=O)C=C1)C[C@H]3N(C)CC2 | > 100 µM |
| Cc1ccc(O)c(-c2cscn2)c1 | > 100 µM |
| O=C(CN(c1ccccc1)c1ccccc1)n1nnc2ccccc21 | > 100 µM |
| CSc1sc2ccccc2[s+]1 | > 100 µM |
| Cc1ccc(S(=O)(=O)C(C#N)c2nc3ccccc3nc2-n2ccnc2)cc1 (stereo unspecified) | > 100 µM |
